In ChEMBL document CHEMBL1201862, “PubChem BioAssay data set” (2004):
Where a name gives a salt, the structure may show the parent alone. Calls of active or inactive are those of the source.

Columns and labels:
[1] = biological target: Paired box protein Pax-8 (Homo sapiens, UniProt Q06710); assay: PAX8 transcriptional activity inhibition in RMG-I – RMG-I cells, luciferase, cherry-pick, dose response (AID 687027); type: functional, cell-based;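 also: luciferase reporter driven by Pax8 target thyroperoxidase promoter measured by SteadyGlo luminescence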
[2] = OVCAR8 cell viability loss – plate reader, dry powder samples, PAX8 project, dose response (AID 743197); type: functional, cell-based; details: OVCAR-8
[3] = IGROV1 cell killing – plate reader, dry powder samples, PAX8 inhibitor project, dose response (AID 743043); type: functional, cell-based; details: IGROV-1
[4] = OVCAR-3 cell viability loss – plate reader, dry powder samples, PAX8 inhibitor project, dose response (AID 743044); type: functional, cell-based
[5] = biological target: T1, Leucine aminopeptidase (Plasmodium falciparum 3D7, UniProt Q8IL11); assay: P. falciparum M17LAP inhibitors, primary screen, biochemical, fluorogenic H-Leu-NHMec substrate, 1536-well (AID 1619); type: functional
T1 sequence (Q8IL11 whole entry): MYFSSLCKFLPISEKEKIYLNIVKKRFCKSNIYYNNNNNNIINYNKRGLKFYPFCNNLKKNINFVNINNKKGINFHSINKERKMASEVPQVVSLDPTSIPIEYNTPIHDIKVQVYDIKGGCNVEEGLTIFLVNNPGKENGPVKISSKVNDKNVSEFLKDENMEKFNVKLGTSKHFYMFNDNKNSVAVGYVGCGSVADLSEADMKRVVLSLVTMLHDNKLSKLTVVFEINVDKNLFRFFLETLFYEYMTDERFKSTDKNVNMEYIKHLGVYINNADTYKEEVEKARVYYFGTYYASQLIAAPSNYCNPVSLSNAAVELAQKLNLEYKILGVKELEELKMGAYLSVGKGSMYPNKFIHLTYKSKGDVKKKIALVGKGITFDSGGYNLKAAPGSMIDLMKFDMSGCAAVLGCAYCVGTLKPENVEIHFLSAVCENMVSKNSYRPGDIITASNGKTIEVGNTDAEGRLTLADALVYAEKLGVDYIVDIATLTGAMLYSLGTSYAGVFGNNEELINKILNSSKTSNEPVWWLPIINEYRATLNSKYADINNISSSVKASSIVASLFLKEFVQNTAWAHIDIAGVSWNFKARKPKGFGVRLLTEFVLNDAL

[6] = biological target: T2, Protein RecA (Mycobacterium tuberculosis, UniProt P9WHJ3); assay: Fluorescence Cell-Free Homogeneous Dose Retest to Identify Inhibitors of RecA-Intein Splicing Activity. [Related pubchem assays (depositor defined):AID2097, AID2223, AID489010, AID492950]; type: functional
T2 sequence (P9WHJ3 whole entry): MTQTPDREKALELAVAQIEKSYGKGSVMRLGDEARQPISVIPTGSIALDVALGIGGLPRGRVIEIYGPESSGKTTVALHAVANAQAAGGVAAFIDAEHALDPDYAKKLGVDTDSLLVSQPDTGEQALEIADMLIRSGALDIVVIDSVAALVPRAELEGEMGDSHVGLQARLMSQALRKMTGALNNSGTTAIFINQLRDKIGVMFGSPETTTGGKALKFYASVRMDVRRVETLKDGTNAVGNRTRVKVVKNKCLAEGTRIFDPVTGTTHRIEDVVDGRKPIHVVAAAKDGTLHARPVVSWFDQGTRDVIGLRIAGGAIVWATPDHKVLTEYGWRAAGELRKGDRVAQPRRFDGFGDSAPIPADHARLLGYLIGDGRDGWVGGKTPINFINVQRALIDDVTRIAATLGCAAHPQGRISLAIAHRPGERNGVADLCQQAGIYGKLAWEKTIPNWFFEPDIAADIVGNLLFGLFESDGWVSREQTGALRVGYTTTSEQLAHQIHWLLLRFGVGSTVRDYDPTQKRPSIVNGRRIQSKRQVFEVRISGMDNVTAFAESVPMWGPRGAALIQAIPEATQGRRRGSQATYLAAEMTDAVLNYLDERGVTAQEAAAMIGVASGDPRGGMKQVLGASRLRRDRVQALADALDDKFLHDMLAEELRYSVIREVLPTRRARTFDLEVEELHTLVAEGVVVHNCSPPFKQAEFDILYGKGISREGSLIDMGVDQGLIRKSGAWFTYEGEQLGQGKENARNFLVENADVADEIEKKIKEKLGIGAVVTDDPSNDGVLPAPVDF

[7] = biological target: T3, Replicative DNA helicase DnaB (Mycobacterium tuberculosis, UniProt P9WMR3); assay: DnaB intein splicing inhibitors, dose response, biochemical, cell-free fluorescence (AID 449749); type: functional
T3 sequence (P9WMR3 whole entry): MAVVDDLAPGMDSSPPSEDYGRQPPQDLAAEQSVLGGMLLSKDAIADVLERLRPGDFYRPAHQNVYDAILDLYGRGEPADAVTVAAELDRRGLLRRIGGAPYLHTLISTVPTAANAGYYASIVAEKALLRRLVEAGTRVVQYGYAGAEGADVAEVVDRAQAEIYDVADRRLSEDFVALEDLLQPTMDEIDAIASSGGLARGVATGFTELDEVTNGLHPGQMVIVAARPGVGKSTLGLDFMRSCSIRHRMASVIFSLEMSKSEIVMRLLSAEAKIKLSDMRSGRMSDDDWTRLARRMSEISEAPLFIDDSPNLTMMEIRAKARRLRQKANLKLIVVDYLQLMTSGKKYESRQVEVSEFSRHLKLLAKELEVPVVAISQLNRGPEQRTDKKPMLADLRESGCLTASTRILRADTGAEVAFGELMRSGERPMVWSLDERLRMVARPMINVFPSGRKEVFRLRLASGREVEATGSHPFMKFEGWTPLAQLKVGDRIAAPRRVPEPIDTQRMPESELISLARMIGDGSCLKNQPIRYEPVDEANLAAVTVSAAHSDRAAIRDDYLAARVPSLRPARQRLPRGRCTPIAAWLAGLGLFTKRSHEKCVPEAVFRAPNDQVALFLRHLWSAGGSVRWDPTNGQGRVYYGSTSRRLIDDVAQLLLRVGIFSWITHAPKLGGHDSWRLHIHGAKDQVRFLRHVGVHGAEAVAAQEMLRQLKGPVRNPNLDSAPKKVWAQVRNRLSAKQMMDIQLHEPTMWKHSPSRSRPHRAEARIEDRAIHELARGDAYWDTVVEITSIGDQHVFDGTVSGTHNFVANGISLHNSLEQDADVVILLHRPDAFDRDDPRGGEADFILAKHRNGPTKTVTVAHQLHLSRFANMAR

[8] = biological target: Genome polyprotein (dengue virus type 2, UniProt P29990); assay: flavivirus cap methylation enzyme inhibition – biochemical, confirmation dose response, primary screen (AID 588689); type: functional
[9] = biological target: T4, Sentrin-specific protease 1 (Homo sapiens, UniProt Q9P0U3); assay: Dose response confirmation of small molecule inhibitors of the catalytic domain of the SUMO protease, SENP1 in a FRET assay.; type: functional; details: read-out: IC50_Mean
T4 sequence (Q9P0U3 whole entry): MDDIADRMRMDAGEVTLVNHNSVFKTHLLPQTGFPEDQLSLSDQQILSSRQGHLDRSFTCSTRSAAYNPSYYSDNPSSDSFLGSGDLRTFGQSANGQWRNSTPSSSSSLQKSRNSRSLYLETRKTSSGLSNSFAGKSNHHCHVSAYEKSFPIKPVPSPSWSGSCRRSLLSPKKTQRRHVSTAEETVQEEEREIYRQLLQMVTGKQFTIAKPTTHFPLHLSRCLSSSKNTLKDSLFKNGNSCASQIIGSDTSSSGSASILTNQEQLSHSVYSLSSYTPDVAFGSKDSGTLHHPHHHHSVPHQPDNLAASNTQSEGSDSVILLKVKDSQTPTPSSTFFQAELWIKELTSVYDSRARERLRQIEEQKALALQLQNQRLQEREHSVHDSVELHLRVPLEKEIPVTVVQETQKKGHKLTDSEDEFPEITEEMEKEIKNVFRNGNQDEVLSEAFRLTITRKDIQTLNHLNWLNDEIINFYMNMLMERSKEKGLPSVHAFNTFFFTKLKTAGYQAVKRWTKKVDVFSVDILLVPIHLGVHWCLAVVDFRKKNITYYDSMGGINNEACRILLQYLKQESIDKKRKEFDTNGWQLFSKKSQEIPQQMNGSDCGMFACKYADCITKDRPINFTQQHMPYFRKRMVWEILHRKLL

[10] = viability of uninfected HEp-2 cells – cell-based, HTS, cytotoxicity control for RSV inhibitor project, dose response (AID 2410); type: functional; details: human respiratory syncytial virus
[11] = biological target: T4, Sentrin-specific protease 1; assay: SENP1 catalytic domain blockers, concentration series – biochemical, kinetic FRET, dose response (AID 651697); type: functional; details: read-out: IC50_Mean
[12] = Luminescence Cell-Based Dose Retest to Confirm Inhibitors of Cancer Stem Cells. [Related pubchem assays (depositor defined):AID2717, AID2721]; type: functional; details: Homo sapiens
[13] = biological target: T5, Polyadenylate-binding protein 1 (Homo sapiens, UniProt P11940); assay: MLLE binding blockers, Cy5 peptide tracer – biochemical, fluorescence polarization, Cy5-PAM2 peptide, secondary, miRNA deadenylation inhibitor project, dose response (AID 602260); type: functional; details: read-out: IC50_Mean
[14] = biological target: T5, Polyadenylate-binding protein 1; assay: MLLE domain peptide-binding blockers, IC50 – biochemical, fluorescence polarization, FITC-PAM2 peptide, dose response (AID 602259); type: functional; details: read-out: IC50_Mean

Sequence of Paired box protein Pax-8 (Q06710 whole entry): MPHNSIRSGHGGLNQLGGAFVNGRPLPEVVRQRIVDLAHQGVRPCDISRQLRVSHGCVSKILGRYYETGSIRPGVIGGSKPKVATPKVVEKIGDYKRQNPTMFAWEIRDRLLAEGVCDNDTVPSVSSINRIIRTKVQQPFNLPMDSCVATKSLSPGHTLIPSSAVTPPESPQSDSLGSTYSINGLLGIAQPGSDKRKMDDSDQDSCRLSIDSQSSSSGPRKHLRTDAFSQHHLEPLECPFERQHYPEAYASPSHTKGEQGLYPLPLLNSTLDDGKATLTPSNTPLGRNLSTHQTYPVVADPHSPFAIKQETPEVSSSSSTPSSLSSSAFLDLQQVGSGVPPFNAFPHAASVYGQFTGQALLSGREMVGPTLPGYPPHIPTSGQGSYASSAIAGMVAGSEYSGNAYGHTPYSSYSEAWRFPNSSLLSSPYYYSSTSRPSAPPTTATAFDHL
T5 sequence (P11940 whole entry, the tested form may be a part): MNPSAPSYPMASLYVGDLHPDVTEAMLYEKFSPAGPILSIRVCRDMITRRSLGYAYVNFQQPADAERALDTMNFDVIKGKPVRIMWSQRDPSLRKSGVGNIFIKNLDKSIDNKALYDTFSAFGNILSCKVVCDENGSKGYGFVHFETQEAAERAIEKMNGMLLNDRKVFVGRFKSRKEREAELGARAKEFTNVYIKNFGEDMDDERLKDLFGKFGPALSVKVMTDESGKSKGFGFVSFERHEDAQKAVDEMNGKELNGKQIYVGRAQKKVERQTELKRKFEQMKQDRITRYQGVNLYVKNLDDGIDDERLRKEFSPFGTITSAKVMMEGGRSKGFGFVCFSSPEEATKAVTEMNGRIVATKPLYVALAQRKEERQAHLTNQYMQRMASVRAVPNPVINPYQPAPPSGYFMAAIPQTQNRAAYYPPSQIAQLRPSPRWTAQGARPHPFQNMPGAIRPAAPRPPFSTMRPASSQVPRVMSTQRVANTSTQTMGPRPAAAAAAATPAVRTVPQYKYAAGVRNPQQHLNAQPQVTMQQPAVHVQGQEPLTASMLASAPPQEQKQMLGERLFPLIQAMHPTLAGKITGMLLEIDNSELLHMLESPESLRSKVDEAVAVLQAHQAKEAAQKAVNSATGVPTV
Sequence of Genome polyprotein (P29990 2492-3391 limits assumed): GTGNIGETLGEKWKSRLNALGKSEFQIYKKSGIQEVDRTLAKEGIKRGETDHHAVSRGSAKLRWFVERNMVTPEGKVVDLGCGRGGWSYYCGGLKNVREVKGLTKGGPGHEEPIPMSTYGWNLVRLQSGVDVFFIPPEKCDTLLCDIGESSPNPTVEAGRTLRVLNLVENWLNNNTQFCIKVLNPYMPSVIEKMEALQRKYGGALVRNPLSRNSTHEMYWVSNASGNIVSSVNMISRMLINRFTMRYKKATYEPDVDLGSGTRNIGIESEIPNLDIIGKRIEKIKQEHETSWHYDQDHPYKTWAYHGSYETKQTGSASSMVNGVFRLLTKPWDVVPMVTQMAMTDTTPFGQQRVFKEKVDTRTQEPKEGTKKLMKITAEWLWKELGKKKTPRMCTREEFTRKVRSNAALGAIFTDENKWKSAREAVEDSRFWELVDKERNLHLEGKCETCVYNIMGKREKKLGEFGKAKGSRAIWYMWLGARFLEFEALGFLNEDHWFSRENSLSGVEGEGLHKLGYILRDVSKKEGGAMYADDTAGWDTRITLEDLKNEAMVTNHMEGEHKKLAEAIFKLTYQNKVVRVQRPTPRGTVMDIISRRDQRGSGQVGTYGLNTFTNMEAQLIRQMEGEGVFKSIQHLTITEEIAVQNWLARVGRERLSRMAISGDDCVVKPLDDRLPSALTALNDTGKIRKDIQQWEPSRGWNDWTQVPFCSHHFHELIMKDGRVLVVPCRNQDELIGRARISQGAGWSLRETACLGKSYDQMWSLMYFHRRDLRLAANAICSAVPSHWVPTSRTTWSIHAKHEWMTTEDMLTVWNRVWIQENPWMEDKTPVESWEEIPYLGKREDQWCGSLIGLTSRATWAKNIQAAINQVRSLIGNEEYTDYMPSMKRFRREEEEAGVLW

C[C@@H]1CCCCO[C@@H](CN(C)Cc2ccc(Cl)c(Cl)c2)[C@H](C)CN([C@H](C)CO)C(=O)c2cc(NC(=O)Nc3ccc(F)cc3)ccc2O1
AC50 [1]: 5.06 µM (active) | AC50 [2]: > 70 µM (inactive)

O=C(Nc1cccc(F)c1)N1CCCCN2[C@@H](CO)[C@@H](c3ccc(-c4ccccc4F)cc3)[C@@H]2C1
AC50 [1]: 21.1 µM (active) | AC50 [3]: 26.9 µM (active) | AC50 [4]: 37.6 µM (active)

C[C@@H]1CN([C@H](C)CO)S(=O)(=O)c2ccc(C#Cc3cccc(F)c3)cc2O[C@@H]1CN(C)C(=O)NC1CCCCC1
AC50 [1]: 8.38 µM (active) | AC50 [2]: 33.6 µM (active) | AC50 [4]: 42.1 µM (active)

C[C@H]1CN([C@@H](C)CO)C(=O)c2c(c3ccccc3n2C)-c2ccccc2CO[C@@H]1CN(C)Cc1cccc(C(F)(F)F)c1
AC50 [1]: 9.89 µM (active) | AC50 [3]: 53 µM (active) | AC50 [2]: 43.7 µM (active)

C/C(CCC1CC(C)OC1=O)=N/Nc1nc(-c2ccccc2)cs1 (centres undefined)
IC50 [5]: 30.8 µM (active)

Cc1ccc(-c2ccc(/C=N/NC3=NC(=O)C(CC(=O)O)S3)o2)c([N+](=O)[O-])c1 (centres undefined)
IC50 [5]: 101 µM (active) | EC50 [6]: 10.5 µM (active) | AC50 [7]: 26.5 µM (active) | IC50 [8]: 88.6 µM (active)

CN(C)c1ccc(/C=N/NC(=O)/C(O)=C\C2=NC3(CCCC3)Cc3ccccc32)cc1
IC50 [9]: 13.2 µM (active) | CC50 [10]: 25.8 µM (active) | IC50 [11]: 10.1 µM (active) | AC50 [12]: 3.54 µM (active)

CN1Cc2c(N)cccc2C(c2ccccc2)C1 (centres undefined) [NOMIFENSINE MALEATE]
IC50 [9]: 8.71 µM (active) | IC50 [13]: > 66 µM (inactive) | IC50 [11]: 8.36 µM (active) | IC50 [14]: > 66 µM (inactive)
